The text below walks through data of PMC9551036, “A selective and orally bioavailable VHL-recruiting PROTAC achieves SMARCA2 degradation in vivo” (Nature Communications, 2022).

A short description of one data set: Microsomal stability. It is filed as in vitro ADME. The note with it: for Mic. Stab. Human / Mic. Stab. Human QH: human liver microsomes; for Mic. Stab. Mouse / Mic. Stab. Mouse QH: mouse liver microsomes; for Mic. Stab. Rat / Mic. Stab. Rat QH: rat liver microsomes. On the procedure: […] Reactions were terminated by addition of acetonitrile and precipitates separated by centrifugation. Compound concentrations in supernatants were measured by HPLC-MS/MS and clearance was calculated from compound half-lives using the well-stirred liver model.

A short description of another data set: Plasma protein binding. The data set is classed as in vitro ADME. Here is the method: Binding of compound to plasma proteins was determined by equilibrium dialysis of 3 µmol/L compound in plasma (or plasma dilutions in PBS) against PBS through an 8 kDa molecular-weight cut-off cellulose membrane (RED device, Thermo Fisher) at 37 °C for 5 h. After incubation, aliquots from donor and acceptor compartments were precipitated and the concentrations in the supernatants were determined by quantitative LC-MS/MS. Calibration and quality control samples were prepared using blank plasma and internal standard. The fraction unbound was calculated as ratio of the compound concentration in the acceptor compartment to the concentration in the donor compartment.

A further data set deals with SMARCA2 (Homo sapiens, UniProt P51531). Briefly: SMARCA2 capillary electrophoresis protein assay in other cell lines (A549, NCI-H1568, HCT116, LU99, HCC-364, HCT-15, HCC4006, SK-N-AS). The data set is classed as cell-based. The arrangement: endogenous in cells; host or cells: RKO, NCI-H1568, A549, HCT116, LU99, HCC-364, HCT-15, HCC4006, SK-N-AS. Here is the method:
130,000–200,000 cells were seeded in 24-well plates and incubated until settled down or overnight. Compounds were dissolved in DMSO and added to cells in indicated concentrations using a digital dispenser following an optional media change. Cells were incubated for 4 or 18 h as indicated. For SMARCA2/4 half-life determination, 150,000 or 200,000 cells were seeded in 24-well plates. The next day, 50 µg/ml cycloheximide (Sigma) was added and cells were incubated for 1–24 h. For SMARCA2/4 re-synthesis measurements, 200,000 cells were seeded in 24-well plates. The next day, 100 nM compound 6 was added for 4 h to degrade SMARCA2/4, and a sample was taken as baseline for normalisation. To allow re-synthesis, a VHL binder (compound 32, 25 or 50 µM) was then added for 3 or 24 h. Medium was removed, cells were washed with PBS and lysed with 80 µl Lysis Buffer (MSD Tris Lysis Buffer (#R60TX-2) + Halt Inhibitor Cocktail (100x) + Benzonase 0.5 µL/ml). Samples were frozen at −80 °C and thawed at room temperature before use. Samples were transferred to a V-bottom plate and insoluble debris was pelleted by centrifugation for 5 min at maximum speed. The supernatant was transferred to a fresh plate. Master Mix and Ladder were prepared according to manufacturer’s instructions for 12–230 kDa Wes Separation Module, 8 × 25 capillary cartridges, Protein Simple #SM-W004 with Anti-Rabbit Detection Module for Wes, Peggy Sue or Sally Sue, Protein Simple #DM-001. 4.8 µl lysate were mixed with 1.2 µl Master Mix to achieve a protein concentration of ~0.5 µg/µl. Antibodies were diluted in Antibody Diluent II (SMARCA2 Sigma #HPA029981 RRID:AB_10602406 1:25–100, SMARCA4 Cell Signalling #49360 clone D1Q7F RRID:AB_2728743 1:15–120 or Abcam #ab110641 clone EPNCIR111A RRID:AB_10861578 1:60, GAPDH Abcam #ab9485 RRID:AB_307275 1:250). Wes plates were prepared and run according to manufacturer’s instructions. Proteins were quantified with accompanying Compass Software. SMARCA2/4 protein levels were normalised to GAPDH. […] Where applicable, curves were fitted using a 4-parametric logistic model.

Setting [1] is: NCI-H1568 (4 h), mean ± SD, read-out: SMARCA2 DC50.
The mark [2] stands for this setting: NCI-H1568, 4h, individual replicates, read-out: NCI-H1568 (4h) SMARCA2 DC50.

Each structure is given as a SMILES string. Where “and” joins values, the source holds several entries; their conditions need not be identical. Identical values can stand only once. Like-named read-outs stand apart in the source and are kept apart here.

Sequence of SMARCA2 (P51531 whole entry): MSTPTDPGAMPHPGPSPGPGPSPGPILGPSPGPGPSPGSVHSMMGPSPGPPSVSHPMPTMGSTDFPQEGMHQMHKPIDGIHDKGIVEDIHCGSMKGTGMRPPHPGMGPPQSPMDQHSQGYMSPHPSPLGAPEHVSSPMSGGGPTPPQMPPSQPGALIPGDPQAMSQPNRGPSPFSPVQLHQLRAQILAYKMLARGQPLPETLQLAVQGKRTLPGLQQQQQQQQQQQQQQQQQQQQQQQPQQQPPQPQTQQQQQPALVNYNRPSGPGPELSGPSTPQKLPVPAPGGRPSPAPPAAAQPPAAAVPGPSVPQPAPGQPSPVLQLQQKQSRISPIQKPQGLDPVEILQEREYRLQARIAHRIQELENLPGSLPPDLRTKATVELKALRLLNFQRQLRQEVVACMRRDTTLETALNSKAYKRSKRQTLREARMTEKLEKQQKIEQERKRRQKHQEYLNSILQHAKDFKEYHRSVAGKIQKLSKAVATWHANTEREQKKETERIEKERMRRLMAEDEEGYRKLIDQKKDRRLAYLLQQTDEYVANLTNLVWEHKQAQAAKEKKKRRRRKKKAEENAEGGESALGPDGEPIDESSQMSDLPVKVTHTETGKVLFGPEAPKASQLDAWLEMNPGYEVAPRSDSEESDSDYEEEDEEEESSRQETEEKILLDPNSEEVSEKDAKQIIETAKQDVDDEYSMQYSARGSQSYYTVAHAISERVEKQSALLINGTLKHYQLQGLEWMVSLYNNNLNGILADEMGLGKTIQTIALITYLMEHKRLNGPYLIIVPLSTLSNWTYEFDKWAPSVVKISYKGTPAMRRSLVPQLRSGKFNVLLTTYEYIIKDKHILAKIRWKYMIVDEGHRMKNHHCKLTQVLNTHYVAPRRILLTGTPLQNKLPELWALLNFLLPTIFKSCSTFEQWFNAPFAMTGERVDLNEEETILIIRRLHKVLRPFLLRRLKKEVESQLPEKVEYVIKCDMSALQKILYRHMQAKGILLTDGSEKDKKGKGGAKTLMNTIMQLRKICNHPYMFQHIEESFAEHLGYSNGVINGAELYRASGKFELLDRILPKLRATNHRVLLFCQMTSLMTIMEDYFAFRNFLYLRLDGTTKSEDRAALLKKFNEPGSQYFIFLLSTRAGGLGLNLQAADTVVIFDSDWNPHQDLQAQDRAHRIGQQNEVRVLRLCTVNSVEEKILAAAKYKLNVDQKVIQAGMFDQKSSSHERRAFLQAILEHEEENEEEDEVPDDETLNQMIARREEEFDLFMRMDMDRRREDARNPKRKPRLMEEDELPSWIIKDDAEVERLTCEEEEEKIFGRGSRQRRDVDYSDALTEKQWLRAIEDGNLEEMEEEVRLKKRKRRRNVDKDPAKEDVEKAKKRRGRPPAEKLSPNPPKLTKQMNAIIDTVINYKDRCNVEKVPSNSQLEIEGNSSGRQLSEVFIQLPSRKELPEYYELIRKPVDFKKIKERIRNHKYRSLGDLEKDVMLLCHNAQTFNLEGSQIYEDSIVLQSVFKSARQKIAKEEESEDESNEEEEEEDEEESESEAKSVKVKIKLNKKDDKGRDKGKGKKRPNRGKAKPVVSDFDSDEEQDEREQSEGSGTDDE

Take `Cc1ncsc1-c1ccc([C@H](COC(C)(C)CN2CCC(c3ccc4c(c3)n(C3CCCC3)c3nc(=O)c5c(Br)cccc5n43)CC2)NC(=O)[C@@H]2C[C@@H](O)CN2C(=O)[C@@H](NC(=O)C2(F)CC2)C(C)(C)C)cc1` [compound 28]: in “Microsomal stability”, the “Mic. Stab. Human” value is reported as 57 ± 4 % QH; the “Mic. Stab. Human QH” value was 51.200% and 55.600% and 59.900% and 60.900%; the “Mic. Stab. Mouse” value is below 24 % QH; the “Mic. Stab. Mouse QH” value is < 24.200% and 25.800%. Also, in “Microsomal stability”, the “Mic. Stab. Rat” value is below 23 % QH; the “Mic. Stab. Rat QH” value was < 23.100% and 29.700%. Also, in “Plasma protein binding”, the “PPB fu 10% Calf” value is 1.857% and 2.316%; the “PPB fu 10% Human” value was below 0.224%; the “PPB fu 10% Mouse” value is on record as below 0.219%; the “PPB fu 10% Rat” value is given as below 0.231%. Moreover, in the data set “Plasma protein binding” (fraction unbound), the “PPB fu 10% Calf” value came to 2 ± 0.3%, the “PPB fu Human” value is given as below 0.2%, the “PPB fu Mouse” value is below 0.2% and the “PPB fu Rat” value is given as below 0.2%. The “SMARCA2 Dmax” value at SMARCA2 (NCI-H1568 (4 h), mean ± SD) amounted to 94 ± 6%. The DC50 at SMARCA2 (setting [1]) was found to be 0.018 ± 0.013 µM. Further, the DC50 on SMARCA2 (setting [2]) is 0.00662 µM and 0.0282 µM and 0.0301 µM.

Turning to `Cc1ncsc1-c1ccc([C@H](CCCCN2CCC(c3ccc4c(c3)n(C3CCCC3)c3nc(=O)c5c(Br)cccc5n43)CC2)NC(=O)[C@@H]2C[C@@H](O)CN2C(=O)[C@@H](NC(=O)C2(F)CC2)C(C)(C)C)cc1` [compound 25], in the data set “Microsomal stability”, the “Mic. Stab. Human” value amounted to 25 % QH, the “Mic. Stab. Human QH” value is recorded as 24.800%, the “Mic. Stab. Mouse” value is below 24 % QH and the “Mic. Stab. Mouse QH” value is below 24.200%. Further, in “Microsomal stability”, the “Mic. Stab. Rat” value is recorded as below 23 % QH and the “Mic. Stab. Rat QH” value is below 23.100%. In “Plasma protein binding”, the “PPB fu 10% Calf” value amounted to 0.731%. The “PPB fu 10% Calf” value in “Plasma protein binding” (fraction unbound) turned out to be 0.7%.

For `Cc1ncsc1-c1ccc(CNC(=O)[C@@H]2C[C@@H](O)CN2C(=O)[C@@H](NC(=O)C2(F)CC2)C(C)(C)C)c(OCCCCN2CCC(c3ccc4c(c3)n(C3CCCC3)c3nc(=O)c5c(Br)cccc5n43)CC2)c1` [compound 23], in the data set “Microsomal stability”, the “Mic. Stab. Human” value stood at 78 % QH, the “Mic. Stab. Human QH” value is given as 78.440%, the “Mic. Stab. Mouse” value is reported as 42 % QH and the “Mic. Stab. Mouse QH” value worked out at 42.090%. In the data set “Microsomal stability”, the “Mic. Stab. Rat” value was below 23 % QH and the “Mic. Stab. Rat QH” value is below 23.080%.

As for `Cc1ncsc1-c1ccc(CNC(=O)[C@@H]2C[C@@H](O)CN2C(=O)[C@@H](NC(=O)C2(F)CC2)C(C)(C)C)c(OCCOCCOCCOCCN2CCC(c3ccc4c(c3)n(C3CCCC3)c3nc(=O)c5c(Br)cccc5n43)CC2)c1` [compound 22], in the data set “Microsomal stability”, the “Mic. Stab. Human” value is on record as 83 ± 13 % QH; the “Mic. Stab. Human QH” value was 92.060% and 73.150%; the “Mic. Stab. Mouse” value was determined as 58 % QH; the “Mic. Stab. Mouse QH” value is 57.720%. Further, in “Microsomal stability”, the “Mic. Stab. Rat” value is recorded as 40 % QH and the “Mic. Stab. Rat QH” value was 40.440%.

In the case of `Cc1ncsc1-c1ccc([C@H](CCC(C)(C)CCN2CCC(c3ccc4c(c3)n(C3CCCC3)c3nc(=O)c5c(Br)cccc5n43)CC2)NC(=O)[C@@H]2C[C@@H](O)CN2C(=O)[C@@H](NC(=O)C2(F)CC2)C(C)(C)C)cc1` [compound 30], in “Microsomal stability”, the “Mic. Stab. Human” value is reported as below 24 % QH, the “Mic. Stab. Human QH” value is given as <24.400 <24.400%, the “Mic. Stab. Mouse” value is listed as below 24 % QH and the “Mic. Stab. Mouse QH” value is recorded as below 24.200%. In the data set “Microsomal stability”, the “Mic. Stab. Rat” value was below 23 % QH and the “Mic. Stab. Rat QH” value is reported as <23.100 <23.100%. In the data set “Plasma protein binding”, the “PPB fu 10% Calf” value is reported as below 0.071%. Also, the “PPB fu 10% Calf” value in the data set “Plasma protein binding” (fraction unbound) is listed as below 0.07%.

Turning to `Cc1ncsc1-c1ccc([C@H](COCCCN2CCC(c3ccc4c(c3)n(C3CCCC3)c3nc(=O)c5c(Br)cccc5n43)CC2)NC(=O)[C@@H]2C[C@@H](O)CN2C(=O)[C@@H](NC(=O)C2(F)CC2)C(C)(C)C)cc1` [compound 27], in the data set “Microsomal stability”, the “Mic. Stab. Human” value is given as 43 ± 5 % QH; the “Mic. Stab. Human QH” value was 46.200% and 38.900%; the “Mic. Stab. Mouse” value is given as below 25 % QH; the “Mic. Stab. Mouse QH” value was 24.700% and < 24.200%. Moreover, in the data set “Microsomal stability”, the “Mic. Stab. Rat” value was below 23 % QH and the “Mic. Stab. Rat QH” value is reported as <23.100 <23.100%.

Take `Cc1ncsc1-c1ccc(CNC(=O)[C@@H]2C[C@H](O)CN2C(=O)[C@@H](NC(=O)C2(F)CC2)C(C)(C)C)c(OCCN2CCC(c3ccc4c(c3)n(C3CCCC3)c3nc(=O)c5c(Br)cccc5n43)CC2)c1` [compound 19]: in “Microsomal stability”, the “Mic. Stab. Human” value is 82 % QH, the “Mic. Stab. Human QH” value is reported as 81.450%, the “Mic. Stab. Mouse” value is 68 % QH and the “Mic. Stab. Mouse QH” value is 67.500%. Moreover, in the data set “Microsomal stability”, the “Mic. Stab. Rat” value was 28 % QH and the “Mic. Stab. Rat QH” value is 27.950%.

For `Cc1ncsc1-c1ccc(CNC(=O)[C@@H]2C[C@@H](O)CN2C(=O)[C@@H](NC(=O)C2(F)CC2)C(C)(C)C)c(OCCOCCOCCN2CCC(c3ccc4c(c3)n(C3CCCC3)c3nc(=O)c5c(Br)cccc5n43)CC2)c1` [compound 21], in “Microsomal stability”, the “Mic. Stab. Human” value was found to be 87 ± 10 % QH; the “Mic. Stab. Human QH” value is 92.470% and 92.660% and 75.300%; the “Mic. Stab. Mouse” value worked out at 56 ± 10 % QH; the “Mic. Stab. Mouse QH” value was 62.650% and 61.360% and 44.780%. For the same compound, in the data set “Microsomal stability”, the “Mic. Stab. Rat” value was determined as 45 ± 13 % QH; the “Mic. Stab. Rat QH” value was 57.680% and 45.850% and 32.500%.

Consider `Cc1ncsc1-c1ccc(CNC(=O)[C@@H]2C[C@@H](O)CN2C(=O)[C@@H](NC(=O)C2(F)CC2)C(C)(C)C)c(OCCN2CCC(c3ccc4c(c3)n(C3CCCC3)c3nc(=O)c5c(Br)cccc5n43)CC2)c1` [compound 20], for which, in the data set “Microsomal stability”, the “Mic. Stab. Human” value turned out to be 89 ± 7 % QH; the “Mic. Stab. Human QH” value is 92.780% and 92.740% and 91.810% and 92.050% and 77.420%; the “Mic. Stab. Mouse” value is reported as 76 ± 2 % QH; the “Mic. Stab. Mouse QH” value was 73.270% and 75.530% and 75.780% and 78.330%. Further, in “Microsomal stability”, the “Mic. Stab. Rat” value is recorded as 33 ± 3 % QH; the “Mic. Stab. Rat QH” value was 34.870% and 29.970% and 29.780% and 36.100% and < 23.080%. Moreover, the DC50 at SMARCA2 (setting [1]) was above 2.5 µM. Also, on SMARCA2 (setting [2]), the DC50 is above 2.5 µM.

Take `Cc1ncsc1-c1ccc([C@H](CC[C@@H](C)CCN2CCC(c3ccc4c(c3)n(C3CCCC3)c3nc(=O)c5c(Br)cccc5n43)CC2)NC(=O)[C@@H]2C[C@@H](O)CN2C(=O)[C@@H](NC(=O)C2(F)CC2)C(C)(C)C)cc1` [compound 29]: in the data set “Microsomal stability”, the “Mic. Stab. Human” value was below 24 % QH, the “Mic. Stab. Human QH” value is <24.400 <24.400%, the “Mic. Stab. Mouse” value is reported as below 24 % QH and the “Mic. Stab. Mouse QH” value is <24.200 <24.200%. Besides, in “Microsomal stability”, the “Mic. Stab. Rat” value was below 23 % QH and the “Mic. Stab. Rat QH” value is on record as <23.100 <23.100%. Moreover, in “Plasma protein binding”, the “PPB fu 10% Calf” value was below 0.144%, the “PPB fu 10% Human” value was below 0.052%, the “PPB fu 10% Mouse” value is on record as below 0.335% and the “PPB fu 10% Rat” value is recorded as below 0.272%. In addition, in “Plasma protein binding” (fraction unbound), the “PPB fu 10% Calf” value was below 0.14%, the “PPB fu Human” value was below 0.05%, the “PPB fu Mouse” value is given as below 0.34% and the “PPB fu Rat” value was below 0.27%.
